Source: ChEMBL document CHEMBL1143283, “Preliminary biological evaluations of new thalidomide analogues for multiple sclerosis application” (Bioorg Med Chem Lett, 2009)
The source made the active and inactive calls. The calls are words filed in the database; no cut-off is given here.

Key:
[1] = system: Mus musculus; assay: Antiangiogenesis activity against MOG peptide, pertussis toxin, Mycobacterium tuberculosis-induced experimental allergic encephalomyelitis C57BL/6J mouse model assessed as inhibition of multiple sclerosis at dose equivalent to 100 mg/kg of thalidomide up to 15 days; type: functional, organism-based; design: dose 100 mg/kg
[2] = system: EA.hy 926; assay: Antiproliferative activity against human EAhy926 cells at 10 uM; type: functional, cell-based
[3] = system: EA.hy 926; assay: Antiproliferative activity against human EAhy926 cells at 12 uM; type: functional, cell-based
[4] = Antiproliferative activity against human EAhy926 cells; type: functional, cell-based; conditions: EA.hy 926
[5] = system: Mus musculus; assay: Antiangiogenesis activity against MOG peptide, pertussis toxin, Mycobacterium tuberculosis-induced experimental allergic encephalomyelitis C57BL/6J mouse model assessed as inhibition of multiple sclerosis at 100 mg/kg up to 15 days; type: functional, organism-based; design: dose 100 mg/kg

Structure (SMILES) | Activity [1] | IC50 [4] | other results
O=C1CCC(N2C(=O)c3ccc(NCCCNC(=O)C(O)C(O)C(O[C@@H]4O[C@H](CO)[C@H](O)[C@H](O)[C@H]4O)C(O)CO)cc3C2=O)C(=O)N1 (stereo partly drawn) | Active | – | –
O=C1CCC(N2C(=O)c3ccc([N+](=O)[O-])cc3C2=O)C(=O)N1 (stereo not drawn) | – | – | Activity [2]: inactive; Activity [3]: inactive
NCCNc1cccc2c1C(=O)N(C1CCC(=O)NC1=O)C2=O (stereo not drawn) | – | 150 µM | –
O=C1CCC(N2C(=O)c3ccccc3C2=O)C(=O)N1 (stereo not drawn) [THALIDOMIDE] | – | 200 µM | Activity [5]: inactive
CC(C)(C)OC(=O)NCCNc1ccc2c(c1)C(=O)N(C1CCC(=O)NC1=O)C2=O (stereo not drawn) | – | 41 µM | –
O=C1CCC(N2C(=O)c3ccc(C(=O)O)cc3C2=O)C(=O)N1 (stereo not drawn) | Active | – | –
Nc1ccc2c(c1)C(=O)N(C1CCC(=O)NC1=O)C2=O (stereo not drawn) | inactive | – | –
NCCNc1ccc2c(c1)C(=O)N(C1CCC(=O)NC1=O)C2=O (stereo not drawn) | inactive | – | Activity [2]: inactive; Activity [3]: inactive
O=C1CCC(N2C(=O)c3ccc(NCCCCC(NC(=O)[C@H](O)[C@H](O)[C@H](O[C@@H]4O[C@H](CO)[C@H](O)[C@H](O)[C@H]4O)[C@H](O)CO)C(=O)NCCC(F)(F)C(F)(F)C(F)(F)C(F)(F)C(F)(F)C(F)(F)C(F)(F)C(F)(F)F)cc3C2=O)C(=O)N1 (stereo partly drawn) | inactive | – | –
